Reference: US5003044A, “Peptide inhibitors of motor neuron attachment to s-laminin” (Washington University, priority 1989, dated 1991)
No end group written: not given here.

How the values were obtained:
[1] = tested on: adhesion of ciliary neurons to pET-RK36 s-laminin fragment; settings: for Inhibition of neuronal adhesion to pET-RK36 / s-laminin (in words): concentration not given
ciliary ganglion neurons = experiment: Cell attachment assay on immobilized substrata, ciliary ganglion neurons; type: cell-based, chick
Procedure: (§1) Substrates were immobilized to tissue culture dishes as described by Lagenaur and Lemmon, Proc. Natl. Acad. Sci. USA 84, 7753-7757 (1987). Briefly, nitrocellulose (BA85; Schleicher and Schuell, Keene, N.H.) was dissolved in methanol (1 cm^2 /ml), applied to tissue culture wells (90 µl per 16 mm diameter well) and allowed to dry. Drops (1.5-3 μl) of substrates in solution were applied and allowed to bind for 20 min. after which the drops were aspirated. Nonspecific binding sites on the nitrocellulose were then blocked by incubating wells with the following series of solutions: 10 mg/ml bovine serum albumin (BSA; Sigma) in PBS for ~1 min; 30 mg/ml BSA in PBS for 2-3 hr; Earles' Minimum Essential Medium (MEM) containing 2% fetal bovine serum and 25 mM HEPES, pH 7.4, for 5 min; PBS, twice briefly; and Earles' MEM containing 1 mg/ml BSA and 25 mM HEPES, pH 7.4, for 30 min at 37° C. in a humidified chamber containing 7% CO2. At this point, neurons were added, with or without synthetic peptides, and incubated for 2 hr at 37° C. Finally, the wells were washed twice with PBS pre-warmed to 37° and adherent cells were fixed in place with 2% paraformaldehyde and 2% glutaraldehyde in PBS.
Neurons were dissociated from chick ciliary ganglia as previously described by Nishi and Berg, Proc. Natl. Acad. Sci. USA 74, 5171-5175 (1977);
Covault et al., J. Cell Biol. 105, 2479-2488 (1987). Each well received ~5000 neurons, which corresponds to ~1 E8 ganglia, ~1.5 E10 ganglia, and ~2 E13 ganglia (E8, E10 and E13 are stages of development of the embryonic chick) [neuronal death is occurring over this time course; Landmessen and Pilar, J. Physiol. 241, 715-736 (1974)]. Chick dorsal root ganglia and optic tecta were dissociated in the same manner; each well received cells from 4-5 dorsal root ganglia or 0.25 optic tecta. For B35 and B104 cell lines, each well received 20,000 cells. For PC12 cells, each well received 5000 cells. In some tests, PC12 cells were grown with 50 ng/ml nerve growth factor (NGF) for 3-6 days before use. All cells were suspended in Earles' MEM containing 1 mg/ml BSA and 25 mM HEPES, pH 7.4, for addition to tissue culture wells.
Cell attachment assays were performed as described hereinbefore.

[2] = tested on: dorsal root ganglion neurons; experiment: Cell attachment assay on immobilized substrata, dorsal root ganglion neurons; type: cell-based, chick; settings: sensory neurons (cell type implied by context)
Procedure: as §1, with “Finally, the wells were washed twice with PBS pre-warmed to 37° and adherent cells were fixed in place with 2% paraformaldehyde and 2% glutaraldehyde in PBS.” left out
(§2) Ciliary neurons were selected for initial tests because many of these neurons normally form neuromuscular junctions on striated muscle fibers in vivo [Pilar et al., J. Neurophys. […] To extend these tests, it was determined whether neurons of other types also adhered to the s-laminin fragments. […]

tectal neurons = experiment: Cell attachment assay on immobilized substrata, tectal neurons; type: cell-based, chick; settings: 2 hr
Procedure: as §1, with “Finally, the wells were washed twice with PBS pre-warmed to 37° and adherent cells were fixed in place with 2% paraformaldehyde and 2% glutaraldehyde in PBS.” left out
as §2

[3] = tested on: neurons and neuron-like cells; experiment: Cell attachment assay, each cell type of Table 1; type: cell-based; settings: for each cell type, Table 1 footnote
Procedure: as §1
Covault et al., J. Cell Biol. 105, 2479-2488 (1987). […]

AEKQLREQVGD [Peptide M51]
IC50 [1]: 10 to 20 µM
IC50 for inhibition of neuronal adhesion to pET-RK36 [1]: ~ 20 μg/ml

β-galactosidase: pure β-galactosidase
Attachment of ciliary neurons to recombinant proteins / bacterial extracts (FIG. 2) (ciliary ganglion neurons; control for vector-encoded sequences): no significant attachment

laminin
Applied ciliary neurons adhered (ciliary ganglion neurons; 2 hour assay, optimal concentration of substrate on nitrocellulose): 30-40%
Adhesion of ciliary neurons to substrate (FIG. 3) (ciliary ganglion neurons; 2 hr, laminin 100 μg/ml, pET-RK36 10 μg/ml): adhere well
Optimal concentration in molar terms (ciliary ganglion neurons; Mr ~900,000 laminin, ~20,000 s-laminin fragment): ~ 0.5 μM
Concentration of applied solution giving maximal adhesion (ciliary ganglion neurons; ciliary neurons): ~ 500 μg/ml
Lowest concentration in solution with significant adhesion (ciliary ganglion neurons; ciliary neurons): 20 µg/mL
Fold more cells adhered to laminin than to s-laminin [2]: at least 10 fold
Adhesion of tectal cells to substrate (FIG. 3) (tectal neurons): adhere well
Cells applied that adhered to laminin [3]: 20

LREQVG [Peptide M513]
Inhibition of neuronal adhesion to pET-RK36 / s-laminin (in words) [1]: inhibitory

KQLREQ [Peptide M512]
Inhibition of neuronal adhesion to pET-RK36 / s-laminin (in words) [1]: inhibitory

AEKQLREQVGDQYQTVRALAE [Peptide M5]
IC50 [1]: 10 to 20 µM

poly-lysine
More neurons adhered to poly-lysine than to either laminin or s-laminin (ciliary ganglion neurons; ciliary neurons, each stage E8-E13): 30-50%

AEKQLR [Peptide M511]
Inhibition of neuronal adhesion to pET-RK36 / s-laminin (in words) [1]: inhibiting activity is not shown
